This assay concerns the target PLK1 (Homo sapiens, UniProt P53350). Nature of the assay: PLK1 Inhibition Assay 1 (radioactive-phosphate incorporation assay). The format is biochemical. As to conditions: Ki(app), [γ-33P]ATP 350 μM, peptide 450 μM, 1 nM PLK1 for values of <1 nM. The protocol: Compounds of the present invention are evaluated as inhibitors of human PLK using the following assays.
Compounds were screened for their ability to inhibit PLK1 using a radioactive-phosphate incorporation assay. Assays were carried out in a mixture of 25 mM HEPES (pH 7.5), 10 mM MgCl2, 0.1% BSA, and 2 mM DTT. Final substrate concentrations were 150 μM (350 μM for determining values of <1 nM) [γ-33P]ATP (115 mCi 33P ATP/mmol ATP, Amersham Pharmacia Biotech/Sigma Chemicals) and 300 μM (450 μM for determining values of <1 nM) peptide (KKKISDELMDATFADQEAK)[SEQ ID:1]. Assays were carried out at 25° C. in the presence of 4 nM (1 nM for determining values of <1 nM) PLK1. An assay stock buffer solution was prepared containing all of the reagents listed above, with the exception of ATP and the test compound of interest. 30 μL of the stock solution was placed in a 96 well plate followed by addition of 2 μL of DMSO stock containing serial dilutions of the test compound (typically starting from a final concentration of 10 μM with 2-fold serial dilutions) in duplicate (final DMSO concentration 5%). The plate was pre-incubated for 10 minutes at 25° C. and the reaction initiated by addition of 8 μL [γ-33P]ATP (final concentration 150 μM (350 μM for determining values of <1 nM))).
The reaction was stopped after 90 minutes (240 minutes for determining values of <1 nM) by the addition of 100 μL 0.14M phosphoric acid. A multiscreen phosphocellulose filter 96-well plate (Millipore, Cat no. MAPHN0B50) was pretreated with 100 μL 0.2M phosphoric acid prior to the addition of 125 μL of the stopped assay mixture. The plate was washed with 4×200 μL 0.2M phosphoric acid. […]
After removing mean background values for all of the data points, Ki(app) data were calculated from non-linear regression analysis of the initial rate data using the Prism software package (GraphPad Prism version 3.0cx for Macintosh, GraphPad Software, San Diego Calif., USA).

Chain of PLK1 (P53350 whole entry): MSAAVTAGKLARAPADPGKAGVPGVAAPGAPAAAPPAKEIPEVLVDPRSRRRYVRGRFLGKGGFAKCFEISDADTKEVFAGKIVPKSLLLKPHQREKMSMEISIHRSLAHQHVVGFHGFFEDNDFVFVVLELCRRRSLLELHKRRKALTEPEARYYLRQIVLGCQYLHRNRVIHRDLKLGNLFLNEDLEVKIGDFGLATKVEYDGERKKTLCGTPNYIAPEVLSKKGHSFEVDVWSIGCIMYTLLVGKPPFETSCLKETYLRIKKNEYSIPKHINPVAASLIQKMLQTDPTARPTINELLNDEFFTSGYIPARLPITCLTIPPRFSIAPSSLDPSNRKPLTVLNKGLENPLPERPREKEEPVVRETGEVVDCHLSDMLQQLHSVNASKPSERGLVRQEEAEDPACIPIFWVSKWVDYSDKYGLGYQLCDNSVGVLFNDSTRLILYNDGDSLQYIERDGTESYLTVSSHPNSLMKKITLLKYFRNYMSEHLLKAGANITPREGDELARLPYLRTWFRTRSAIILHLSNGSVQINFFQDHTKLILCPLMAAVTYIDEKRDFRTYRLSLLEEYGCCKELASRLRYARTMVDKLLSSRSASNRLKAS

`CC[C@@H]1c2c(C(=O)O)ncn2-c2cnc(Nc3ccc(C(=O)NC)cc3OC)nc2N1C1CCCC1` [Compound I-2, (R)-3-(4-(methylcarbamoyl)-2-methoxyphenylamino)-5-cyclopentyl-6-ethyl-5,6-dihydroimidazo[1,5-f]pteridine-7-carboxylic acid]: the Ki was less than 1 nM.
Turning to `CC[C@@H]1c2cncn2-c2cnc(Nc3ccc(C(=O)NC)cc3OC)nc2N1C1CCCC1` [Compound I-4, (R)-4-(5-cyclopentyl-6-ethyl-5,6-dihydroimidazo[1,5-f]pteridin-3-ylamino)-3-methoxy-N-methylbenzamide], the Ki is less than 1 nM.
In the case of `CC[C@@H]1c2cncn2-c2cnc(Nc3ccc(C(=O)NC4CC4)cc3OC)nc2N1C1CCCC1` [Compound I-6, (R)-4-(5-cyclopentyl-6-ethyl-5,6-dihydroimidazo[1,5-f]pteridin-3-ylamino)-N-cyclopropyl-3-methoxybenzamide] it was less than 1 nM.

Values taken from patent publication US8557818B2, “Compounds useful as protein kinase inhibitors” (Vertex Phamaceuticals Incorporated, priority 2006, dated 2013).
